Test [1] concerns the target T1, human CYP11B2 (Homo sapiens, UniProt P19099).
T1 construct: expressed in transfected cells; host or cells: V79 cells (clone V79-hCYP11B2-CLE9)
T1 sequence (P19099 25-503): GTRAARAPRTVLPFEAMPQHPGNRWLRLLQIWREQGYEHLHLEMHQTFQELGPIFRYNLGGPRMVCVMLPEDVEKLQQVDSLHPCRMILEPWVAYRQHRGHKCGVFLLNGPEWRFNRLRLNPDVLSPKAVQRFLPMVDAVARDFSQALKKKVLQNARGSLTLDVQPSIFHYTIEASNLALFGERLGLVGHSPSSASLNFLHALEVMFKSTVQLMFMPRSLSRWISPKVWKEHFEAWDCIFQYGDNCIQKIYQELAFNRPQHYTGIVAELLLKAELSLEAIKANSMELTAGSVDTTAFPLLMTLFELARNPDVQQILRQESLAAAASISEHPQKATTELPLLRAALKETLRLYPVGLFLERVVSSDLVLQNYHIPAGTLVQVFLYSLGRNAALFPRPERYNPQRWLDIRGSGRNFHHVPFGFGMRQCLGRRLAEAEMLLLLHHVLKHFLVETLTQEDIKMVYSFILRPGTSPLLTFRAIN
In words: V79-Human-CYP11B2 cell assay. The test is classed as cell-based. As to conditions: V79 cells stably expressing human CYP11B2; 125 nM 11-deoxycorticosterone substrate; aldosterone by HTRF. As for the experimental part: (§1) Methods for V79-Human-CYP11B2 and V79-Human-CYP11B1 Assays: V79 cell lines stably expressing the either the human CYP11B2 or the human CYP11B1 enzyme were generated using a standard transfection protocol. V79 cells were transfected with plasmids pTriEx3-Hygro-hCyp11B2 or pTriEx3-Hygro-hCyp11B1 using Lipofectamine2000 reagent. […] Single cell clones were generated by […] in DMEM supplemented with 10% FBS and 400 μg/mL hygromycin until single colonies were obtained. […] The reaction was carried out for 3 hours at 37° C., 5% CO2 and was stopped by harvesting the supernatants. […] IC50s for the inhibitor were determined by plotting the amount of product formed against the concentration of inhibitor using sigmoidal dose-response curve (variable slope) fit in GraphPad.

Test [2] has as its target T2, human CYP11B1 (Homo sapiens, UniProt P15538).
T2 construct: expressed in transfected cells; host or cells: V79 cells (clone V79-hCYP11B1-8CLC7)
T2 sequence (P15538 25-503): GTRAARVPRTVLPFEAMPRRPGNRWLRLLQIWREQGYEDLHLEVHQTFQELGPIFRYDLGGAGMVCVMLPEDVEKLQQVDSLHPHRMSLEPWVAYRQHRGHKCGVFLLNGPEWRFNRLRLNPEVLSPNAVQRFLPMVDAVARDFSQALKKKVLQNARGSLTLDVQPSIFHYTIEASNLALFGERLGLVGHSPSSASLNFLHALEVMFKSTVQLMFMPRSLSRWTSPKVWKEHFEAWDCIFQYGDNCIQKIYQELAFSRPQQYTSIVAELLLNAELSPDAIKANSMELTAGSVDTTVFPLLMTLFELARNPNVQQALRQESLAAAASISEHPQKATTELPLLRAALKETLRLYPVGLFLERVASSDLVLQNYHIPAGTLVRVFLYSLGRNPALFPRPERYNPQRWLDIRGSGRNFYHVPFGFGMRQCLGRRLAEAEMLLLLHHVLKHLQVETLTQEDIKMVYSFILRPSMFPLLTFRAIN
Description: V79-Human-CYP11B1 cell assay. As to conditions: V79 cells stably expressing human CYP11B1; 250 nM 11-deoxycortisol substrate; cortisol by HTRF. The test is classed as cell-based. As for the experimental part: as §1

This is an account of results in patent US9522141B2, “Indazole compounds as aldosterone synthase inhibitors” (Merck Sharp & Dohme Corp., priority 2012, dated 2016).

pIC50: −log10 of the molar value.

For `CCc1c(F)cncc1-n1ncc2c(F)cccc21` [Example 42, 1-(4-ethyl-5-fluoropyridin-3-yl)-4-fluoro-1H-indazole], the negative-log IC50 (pIC50) in test [1] is 6.88; in test [2], 5.74.
For `Fc1cc2cnn(-c3cncc4ccccc34)c2cc1F` [Example 46, 4-(5,6-difluoro-1H-indazol-1-yl)isoquinoline] the same measures were 8.72 and 6.97.
With `CC(O)(c1cncc(-n2ncc3c2CCCC3)c1)C(F)(F)F` (centres unmarked) [Example 75], the pIC50 in test [1] is 8.11; in test [2], 6.30.
The corresponding values for `CC(C)(O)c1cncc(-n2ncc3cccc(F)c32)c1` [Example 68, 2-(5-(7-fluoro-1H-indazol-1-yl)pyridin-3-yl)propan-2-ol] are 8.92 and 7.44.
Consider `Fc1ccc2c(cnn2-c2cncc(C(F)(F)F)c2)c1` [Example 6, 5-fluoro-1-(5-(trifluoromethyl)pyridin-3-yl)-1H-indazole], for which the pIC50 is 7.08 in test [1] and 5.72 in test [2].
On to `CC(C)(O)c1cncc(-n2ncc3cc(F)c(F)cc32)c1` [Example 54, 2-(5-(5,6-difluoro-1H-indazol-1-yl)pyridin-3-yl)propan-2-ol], for which the pIC50 in test [1] is 7.64; in test [2] it was 6.52.
`Cc1nn(-c2cncc(C(F)(F)F)c2)c2cccc(F)c12` [Example 36, 4-fluoro-3-methyl-1-(5-(trifluoromethyl)pyridin-3-yl)-1H-indazole]: the pIC50 in test [1] was 7.77; in test [2], 6.59.
Consider `Clc1cccc2c1cnn2-c1cncc(N2CCC2)n1` [Example 90, 1-(6-azetidin-1-ylpyrazin-2-yl)-4-chloro-1H-indazole], for which the values for the pIC50 in test [1] and in test [2] were 8.80 and 7.50, respectively.
Regarding `C[C@](O)(c1cncc(-n2ncc3c(C(F)(F)F)cccc32)c1)C(F)(F)F` [Example 85, (S)-1,1,1-trifluoro-2-(5-(4-(trifluoromethyl)-1H-indazol-1-yl)pyridin-3-yl)propan-2-ol], the pIC50 in test [1] was 8.66; in test [2], 7.01.
On to `CN(C)c1cncc(-n2ncc3c(Cl)cccc32)n1` [Example 88, 6-(4-chloro-1H-indazol-1-yl)-N,N-dimethylpyrazin-2-amine], for which the negative-log IC50 (pIC50) in test [1] was 7.76; in test [2], 6.20.
